In US7598273B2, “Inhibitors of the gastric H+, K+-ATPase with enhanced therapeutic properties” (Auspex Pharmaceuticals, Inc, priority 2005, dated 2009):

Assays:
[1] = human, topical or ocular
Procedure: Human liver microsomal stability assays were conducted at 1 mg per mL protein concentration with an NADPH-generating system (1.3 mM NADPH, 3.3 mM glucose 6-phosphate and 0.4 U per mL glucose 6-phosphate dehydrogenase) and 3.3 mM MgCl2. Test compounds were added as acetonitrile solutions (final assay concentration of acetonitrile should be <1%) and incubated at 37° C. with shaking. Aliquots (150 μL) were removed at 0, 15, 30, 60, and 120 minutes, and ice cold acetonitrile (300 μL) was added to stop the reactions. Samples were centrifuged at 4000 RPM for 5 minutes to precipitate all proteins. Supernatants were transferred to microcentrifuge tubes and stored for LC/MS/MS analysis of the degradation half-life of the test compounds.

[2] = cited from earlier work
pylorus-ligated rats = test: Rat gastric activity, pylorus ligation (antisecretory activity); format: in vivo; settings: PO 30 mg/kg, 30 minutes before ligation, gastric contents collected 4 hours later, Wistar male rats
Procedure: Compounds of formula (1) according to the present invention were evaluated for possible antisecretory activity in pylorus-ligated rats. […] Wistar derived male rats weighing 210±10 g were fasted overnight. […] Animals were sacrificed 4 hours later and the gastric contents were collected. After centrifugation, the volume of each sample was measured and acidity was determined by titration.

Row | SMILES | increase in the degradation half-life, as compared to the non-isotopically enriched drug [1] | other results
1 | [2H]c1nc(C[S@+]([O-])c2nc3cc(OC([2H])([2H])[2H])ccc3[nH]2)c(C([2H])([2H])[2H])c(OC([2H])([2H])[2H])c1C([2H])([2H])[2H] [Example 39, d13-(S)-5-methoxy-2-(4-methoxy-3,5-dimethylpyridin-2-ylmethane-sulfinyl)-1H-benzimidazole] | ≥ 10% | degradation half-life increased as compared to non-isotopically enriched omeprazole [1]: 20-60%
2 | [2H]C([2H])([2H])Oc1c(C)cnc(C[S+]([O-])c2nc3cc(OC)ccc3[nH]2)c1C (centres unmarked) [Example 34, d3-5-methoxy-2-(4-methoxy-3,5-dimethylpyridin-2-ylmethane-sulfinyl)-1H-benzimidazole] | ≥ 10% | 
3 | [2H]C([2H])([2H])Oc1ccc2[nH]c([S+]([O-])Cc3ncc(C)c(OC([2H])([2H])[2H])c3C)nc2c1 (centres unmarked) [Example 27, d6-5-methoxy-2-(4-methoxy-3,5-dimethylpyridin-2-ylmethane-sulfinyl)-1H-benzimidazole] | ≥ 10% | 
4 | [2H]c1nc(C[S+]([O-])c2nc3cc(OC)ccc3[nH]2)c(C([2H])([2H])[2H])c(OC)c1C([2H])([2H])[2H] (centres unmarked) [Example 19, d7-5-methoxy-2-(4-methoxy-3,5-dimethylpyridin-2-ylmethane-sulfinyl)-1H-benzimidazole] | ≥ 10% | 
5 | [2H]c1nc(C[S+]([O-])c2nc3cc(OC)ccc3[nH]2)c(C([2H])([2H])[2H])c(OC([2H])([2H])[2H])c1C([2H])([2H])[2H] (centres unmarked) [Example 20, d10-5-methoxy-2-(4-methoxy-3,5-dimethylpyridin-2-ylmethane-sulfinyl)-1H-benzimidazole] | ≥ 10% | 
6 | [2H]c1nc(C[S+]([O-])c2nc3cc(OC([2H])([2H])[2H])ccc3[nH]2)c(C([2H])([2H])[2H])c(OC)c1C([2H])([2H])[2H] (centres unmarked) [Example 13, d10-5-methoxy-2-(4-methoxy-3,5-dimethylpyridin-2-ylmethane-sulfinyl)-1H-benzimidazole] | ≥ 10% | 
7 | COc1ccc2nc([S@@+]([O-])Cc3ncc(C)c(OC)c3C)[nH]c2c1 [esomeprazole, (S)-5-methoxy-2-(4-methoxy-3,5-dimethylpyridin-2-ylmethane-sulfinyl)-1H-benzimidazole] |  | ratio of AUC in Poor metabolizers to AUC in the rest of the population (extensive metabolizers) ([2]; at steady state, CYP2C19 poor vs extensive metabolizers): approximately 2; half-life in human plasma higher than that of omeprazole ([2]; human plasma, relative to omeprazole): 20%
8 | [2H]C([2H])([2H])Oc1ccc2[nH]c([S+]([O-])Cc3ncc(C)c(OC)c3C)nc2c1 (centres unmarked) [Example 26, d3-5-methoxy-2-(4-methoxy-3,5-dimethylpyridin-2-ylmethane-sulfinyl)-1H-benzimidazole] | ≥ 10% | 
9 | [2H]c1nc(C([2H])([2H])[S+]([O-])c2nc3cc(OC([2H])([2H])[2H])ccc3[nH]2)c(C([2H])([2H])[2H])c(OC([2H])([2H])[2H])c1C([2H])([2H])[2H] (centres unmarked) [Example 10, d15-5-methoxy-2-(4-methoxy-3,5-dimethyl-pyridin-2-ylmethane-sulfinyl)-1H-benzimidazole] | ≥ 10% | degradation half-life increased as compared to non-isotopically enriched omeprazole [1]: 20-60%; % inhibition relative to vehicle controls: Acidity (μEq/mL) (pylorus-ligated rats): 89%; % inhibition relative to vehicle controls: Total Acid Output (μEq/4 hours) (pylorus-ligated rats): 95%; % inhibition relative to vehicle controls: Volume (mL/4 hours) (pylorus-ligated rats): 55%
10 | [2H]C([2H])([2H])Oc1ccc2[nH]c([S+]([O-])C([2H])([2H])c3ncc(C)c(OC([2H])([2H])[2H])c3C)nc2c1 (centres unmarked) [Example 25, d8-5-methoxy-2-(4-methoxy-3,5-dimethylpyridin-2-ylmethane-sulfinyl)-1H-benzimidazole] | ≥ 10% | 
11 | [2H]C([2H])([2H])Oc1c(C)cnc(C([2H])([2H])[S+]([O-])c2nc3cc(OC)ccc3[nH]2)c1C (centres unmarked) [Example 32, d5-5-methoxy-2-(4-methoxy-3,5-dimethylpyridin-2-ylmethane-sulfinyl)-1H-benzimidazole] | ≥ 10% | 

Continued, in another order:

Row | increase in the degradation half-life, as compared to the non-isotopically enriched drug [1] | SMILES | other results
12 | ≥ 10% | [2H]C([2H])([2H])Oc1ccc2[nH]c([S+]([O-])C([2H])([2H])c3ncc(C)c(OC)c3C)nc2c1 (centres unmarked) [Example 28, d5-5-methoxy-2-(4-methoxy-3,5-dimethylpyridin-2-ylmethane-sulfinyl)-1H-benzimidazole] | 
13 | ≥ 10% | [2H]c1nc(C([2H])([2H])[S+]([O-])c2nc3cc(OC([2H])([2H])[2H])ccc3[nH]2)c(C([2H])([2H])[2H])c(OC)c1C([2H])([2H])[2H] (centres unmarked) [Example 14, d12-5-methoxy-2-(4-methoxy-3,5-dimethylpyridin-2-ylmethane-sulfinyl)-1H-benzimidazole] | 
14 | ≥ 10% | [2H]c1nc(C([2H])([2H])[S+]([O-])c2nc3cc(OC)ccc3[nH]2)c(C([2H])([2H])[2H])c(OC([2H])([2H])[2H])c1C([2H])([2H])[2H] (centres unmarked) [Example 18, d12-5-methoxy-2-(4-methoxy-3,5-dimethylpyridin-2-ylmethane-sulfinyl)-1H-benzimidazole] | 
15 | ≥ 10% | [2H]c1nc(C[S+]([O-])c2nc3cc(OC([2H])([2H])[2H])ccc3[nH]2)c(C([2H])([2H])[2H])c(OC([2H])([2H])[2H])c1C([2H])([2H])[2H] (centres unmarked) [Example 11, d13-5-methoxy-2-(4-methoxy-3,5-dimethylpyridin-2-ylmethane-sulfinyl)-1H-benzimidazole] | degradation half-life increased as compared to non-isotopically enriched omeprazole [1]: 20-60%
16 | ≥ 10% | [2H]c1nc(C([2H])([2H])[S+]([O-])c2nc3cc(OC)ccc3[nH]2)c(C([2H])([2H])[2H])c(OC)c1C([2H])([2H])[2H] (centres unmarked) [Example 21, d9-5-methoxy-2-(4-methoxy-3,5-dimethylpyridin-2-ylmethane-sulfinyl)-1H-benzimidazole] | 
